Experiment [1] addresses T1, Acetylcholinesterase (Homo sapiens, UniProt P22303). Description: Inhibition of AChE at 1000 uM by microplate assay.
The target in experiment [2] is T1, Acetylcholinesterase. Description: Inhibition of AChE by microplate assay.
In experiment [3] the test system is Rattus norvegicus. In words: Increase in extracellular acetylcholine in urethane anesthetized Sprague-Dawley rat nucleus accumbens at 2 umol relative to basal release. The experiment is classed as functional.
Experiment [4] has as its system Rattus norvegicus. In words: Increase in extracellular acetylcholine in urethane anesthetized Sprague-Dawley rat nucleus accumbens. The experiment is classed as functional.
The test system of experiment [5] is Rattus norvegicus. In words: Increase in extracellular acetylcholine at 1 uM in urethane anesthetized Sprague-Dawley rat nucleus accumbens. The experiment is classed as functional.
For experiment [6], the system named is Rattus norvegicus. In words: Increase in extracellular acetylcholine at 2 uM in urethane anesthetized Sprague-Dawley rat nucleus accumbens. The experiment is classed as functional.

pIC50: −log10 of the molar value.

T1 sequence (P22303 whole entry): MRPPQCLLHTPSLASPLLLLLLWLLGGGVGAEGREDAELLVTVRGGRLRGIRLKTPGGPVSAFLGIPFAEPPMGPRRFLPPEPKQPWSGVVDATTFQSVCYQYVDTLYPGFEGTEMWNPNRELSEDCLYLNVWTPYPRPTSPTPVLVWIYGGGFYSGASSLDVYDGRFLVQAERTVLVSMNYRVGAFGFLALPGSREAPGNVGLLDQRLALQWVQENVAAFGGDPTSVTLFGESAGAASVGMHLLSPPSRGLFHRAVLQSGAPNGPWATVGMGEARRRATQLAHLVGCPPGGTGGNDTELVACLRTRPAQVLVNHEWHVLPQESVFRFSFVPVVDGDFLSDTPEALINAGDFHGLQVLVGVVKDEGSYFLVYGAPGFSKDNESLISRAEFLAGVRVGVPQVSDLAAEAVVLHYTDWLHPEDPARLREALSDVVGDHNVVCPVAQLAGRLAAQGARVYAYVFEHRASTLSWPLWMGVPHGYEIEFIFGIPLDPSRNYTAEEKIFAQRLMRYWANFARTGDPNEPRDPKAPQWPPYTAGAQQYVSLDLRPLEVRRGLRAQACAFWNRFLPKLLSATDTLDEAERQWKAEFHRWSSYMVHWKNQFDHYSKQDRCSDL

On Acetylcholinesterase [1], `COc1cc2ccc(=O)oc2cc1O[C@@H]1O[C@H](CO)[C@@H](O)[C@H](O)[C@H]1O` [SCOPOLIN] registered an inhibition of 30.1%. The Activity entry is “Dose-dependent effect” at Acetylcholinesterase [2], 300% in the experiment with Rattus norvegicus [3] and 3.18 in the experiment on Rattus norvegicus [4].

Consider `COc1ccc2c3c1O[C@H]1C[C@@H](O)C=C[C@@]31CCN(C)C2` [GALANTAMINE], for which the figures for the Activity in the experiment with Rattus norvegicus [5] and with Rattus norvegicus [6] were 1.78 and 1.68, respectively.

`COc1cc2ccc(=O)oc2cc1O` [SCOPOLETIN] had a pIC50 against Acetylcholinesterase [2] of 3.77. Besides, the figures for the Activity in the experiment with Rattus norvegicus [3] and with Rattus norvegicus [4] were 170% and 1.74, respectively.

In general, inhibition refers to the change of the read-out against control, counted positive when it falls. Higher therefore signals a strong effect. A word on the pIC50: it is −log10 of the IC50, conventionally taken in molar units. Higher therefore signals a small IC50.

(Values after ChEMBL document CHEMBL1149251, “Acetylcholinesterase inhibitory activity of scopolin and scopoletin discovered by virtual screening of natural products” (J Med Chem, 2004).)
